Laboratory results from patent US20180221306A1, “PHARMACEUTICAL COMPOSITIONS OF 5-HYDROXY-2-METHYLNAPHTHALENE-1,4-DIONE” (PellFiCure Pharmaceuticals, Inc., priority 2016, published 2018).
Marks after values point to notes of the source that are not given here.

Experiments:
[1] = Forced degradation: solution stability in aqueous media (HPLC)
Sprague Dawley rats = assay: 7-day dose range-finding study; format: in vivo, rat
Description: A single-dose maximum tolerated dose (MTD) phase A study and a 7-day dose range-finding (DRF) phase B study were conducted in Sprague Dawley rats by MPI Research, Inc. (Mattawan, Mich.). A total of 62 males and 62 females rats were assigned to the study, which was performed in accordance with all current regulations. Animals were housed in standard conditions and had ad libitum access to food and water. Healthy animals of each sex were randomized into treatment groups using a standard, by weight, measured value randomization procedure. Compound I was administered by oral gavage, once at each dose level in Phase A (acute), or once daily for 7 consecutive days in Phase B. Oral gavage was chosen because the oral route is the intended route of administration in humans. Animals were observed twice daily for morbidity and mortality and were euthanatized for humane reasons where appropriate. An initial starting dose of 50 mg/kg was used for Phase A. Subsequent doses were increased or decreased based on the response to the preceding dose. […] The dose levels used in Phase B were based on the MTD identified in Phase A.
Daily doses of 0 (vehicle), 10, 30 and 100 mg/kg were then administered to Sprague Dawley rats by oral gavage for seven days for the dose-range finding study. […] Adverse events included decreased body weight or decreased body weight gain, decreased food consumption, adverse effects on various pathological parameters and Compound I-related macroscopic and microscopic abnormalities in multiple organs. […] The toxicity profile of Compound I is encouraging considering that the drug is effective in rodents at much lower doses. This toxicity-to-effectiveness dose ratio provides, potentially, a wide therapeutic window.

In the case of CC1=CC(=O)c2c(O)cccc2C1=O [Compound I, 5-hydroxy-2-methylnaphthalene-1,4-dione], the “Solution Stability in Aqueous Media, Purity” value (“Solution Stability” for short) ([1]; pH 1, 50% DMSO, 25° C./60% RH, t = 0) is reported as 99.32 % Area, the “Solution Stability” value ([1]; pH 1, 50% DMSO, 25° C./60% RH, t = 1 week) is reported as 98.83 % Area and the “Solution Stability” value ([1]; pH 1, 50% DMSO, 25° C./60% RH, t = 2 week) is reported as 98.73 % Area. The “Solution Stability” value ([1]; pH 1, 50% DMSO, 40° C./75% RH, t = 1 week) was 98.12 % Area, the “Solution Stability” value ([1]; pH 1, 50% DMSO, 40° C./75% RH, t = 2 week) was 95.79 % Area and the “Solution Stability” value ([1]; pH 2, 50% DMSO, 25° C./60% RH, t = 0) was 98.83 % Area. For the same compound, the “Solution Stability” value ([1]; pH 2, 50% DMSO, 25° C./60% RH, t = 1 week) was 98.48 % Area, the “Solution Stability” value ([1]; pH 2, 50% DMSO, 25° C./60% RH, t = 2 week) was 96.90 % Area and the “Solution Stability” value ([1]; pH 2, 50% DMSO, 40° C./75% RH, t = 1 week, precipitation observed) was 93.43^‡ % Area. The “Solution Stability” value ([1]; pH 2, 50% DMSO, 40° C./75% RH, t = 2 week, precipitation observed) was 85.79^‡ % Area, the “Solution Stability” value ([1]; pH 3, 50% DMSO, 25° C./60% RH, t = 0) was 98.85 % Area and the “Solution Stability” value ([1]; pH 3, 50% DMSO, 25° C./60% RH, t = 1 week) was 97.09 % Area. The “Solution Stability” value ([1]; pH 3, 50% DMSO, 25° C./60% RH, t = 2 week) was 95.26 % Area, the “Solution Stability” value ([1]; pH 3, 50% DMSO, 40° C./75% RH, t = 1 week) was 88.81 % Area and the “Solution Stability” value ([1]; pH 3, 50% DMSO, 40° C./75% RH, t = 2 week) was 72.78 % Area. The “Solution Stability” value ([1]; pH 4, 50% DMSO, 25° C./60% RH, t = 0) was 98.73 % Area, the “Solution Stability” value ([1]; pH 4, 50% DMSO, 25° C./60% RH, t = 1 week, precipitation observed) was 96.77^‡ % Area and the “Solution Stability” value ([1]; pH 4, 50% DMSO, 25° C./60% RH, t = 2 week, precipitation observed) was 93.81^‡ % Area. For the same compound, the “Solution Stability” value ([1]; pH 4, 50% DMSO, 40° C./75% RH, t = 1 week, precipitation observed) was 87.32^‡ % Area, the “Solution Stability” value ([1]; pH 4, 50% DMSO, 40° C./75% RH, t = 2 week, precipitation observed) was 73.78^‡ % Area and the “Solution Stability” value ([1]; pH 5, 50% DMSO, 25° C./60% RH, t = 0) was 98.46 % Area. The “Solution Stability” value ([1]; pH 5, 50% DMSO, 25° C./60% RH, t = 1 week, precipitation observed) was 92.26^‡ % Area, the “Solution Stability” value ([1]; pH 5, 50% DMSO, 25° C./60% RH, t = 2 week, precipitation observed) was 83.09^‡ % Area and the “Solution Stability” value ([1]; pH 5, 50% DMSO, 40° C./75% RH, t = 1 week, precipitation observed) was 58.98^‡ % Area. For the same compound, the “Solution Stability” value ([1]; pH 5, 50% DMSO, 40° C./75% RH, t = 2 week, precipitation observed) was 29.30^‡ % Area, the “Solution Stability” value ([1]; pH 6, 50% DMSO, 25° C./60% RH, t = 0) was 97.78 % Area and the “Solution Stability” value ([1]; pH 6, 50% DMSO, 25° C./60% RH, t = 1 week) was 69.37 % Area. The “Solution Stability” value ([1]; pH 6, 50% DMSO, 25° C./60% RH, t = 2 week, precipitation observed) was 44.92^‡ % Area, the “Solution Stability” value ([1]; pH 6, 50% DMSO, 40° C./75% RH, t = 1 week) was under 10 % Area and the “Solution Stability” value ([1]; pH 6, 50% DMSO, 40° C./75% RH, t = 2 week, precipitation observed) was <10^‡ % Area. For the same compound, the “Solution Stability” value ([1]; pH 7, 50% DMSO, 25° C./60% RH, t = 0) was 91.09 % Area, the “Solution Stability” value ([1]; pH 7, 50% DMSO, 25° C./60% RH, t = 1 week) was under 10 % Area and the “Solution Stability” value ([1]; pH 7, 50% DMSO, 25° C./60% RH, t = 2 week, precipitation observed) was <10^‡ % Area. For the same compound, the “Solution Stability” value ([1]; pH 7, 50% DMSO, 40° C./75% RH, t = 1 week) was under 10 % Area, the “Solution Stability” value ([1]; pH 7, 50% DMSO, 40° C./75% RH, t = 2 week, precipitation observed) was <10^‡ % Area and the “Solution Stability” value ([1]; pH 8, 50% DMSO, 25° C./60% RH, t = 0) was 81.64 % Area. For the same compound, the “Solution Stability” value ([1]; pH 8, 50% DMSO, 25° C./60% RH, t = 1 week) was under 10 % Area, the “Solution Stability” value ([1]; pH 8, 50% DMSO, 25° C./60% RH, t = 2 week, precipitation observed) was <10^‡ % Area and the “Solution Stability” value ([1]; pH 8, 50% DMSO, 40° C./75% RH, t = 1 week) was under 10 % Area. The “Solution Stability” value ([1]; pH 8, 50% DMSO, 40° C./75% RH, t = 2 week, precipitation observed) was <10^‡ % Area, the “Solution Stability” value ([1]; pH 9, 50% DMSO, 25° C./60% RH, t = 0) was 89.84 % Area and the “Solution Stability” value ([1]; pH 9, 50% DMSO, 25° C./60% RH, t = 1 week) was 30.06 % Area. For the same compound, the “Solution Stability” value ([1]; pH 9, 50% DMSO, 25° C./60% RH, t = 2 week, precipitation observed) was 7.58^‡ % Area, the “Solution Stability” value ([1]; pH 9, 50% DMSO, 40° C./75% RH, t = 1 week) was under 10 % Area and the “Solution Stability” value ([1]; pH 9, 50% DMSO, 40° C./75% RH, t = 2 week, precipitation observed) was <10^‡ % Area. The “Solution Stability” value ([1]; pH 10, 50% DMSO, 25° C./60% RH, t = 0) was 88.46 % Area, the “Solution Stability” value ([1]; pH 10, 50% DMSO, 25° C./60% RH, t = 1 week) was 37.43 % Area and the “Solution Stability” value ([1]; pH 10, 50% DMSO, 25° C./60% RH, t = 2 week, precipitation observed) was <10^‡ % Area. For the same compound, the “Solution Stability” value ([1]; pH 10, 50% DMSO, 40° C./75% RH, t = 1 week, precipitation observed) was <10^‡ % Area, the “Solution Stability” value ([1]; pH 10, 50% DMSO, 40° C./75% RH, t = 2 week, precipitation observed) was <10^‡ % Area and the “Solution Stability” value ([1]; water, 25° C./60% RH, t = 0) was 96.33 % Area. For the same compound, the “Solution Stability” value ([1]; water, 25° C./60% RH, t = 1 week, precipitation observed) was 66.97^‡ % Area, the “Solution Stability” value ([1]; water, 25° C./60% RH, t = 2 week, precipitation observed) was 53.76^‡ % Area and the “Solution Stability” value ([1]; water, 40° C./75% RH, t = 1 week, precipitation observed) was 45.09^‡ % Area. For the same compound, the “Solution Stability” value ([1]; water, 40° C./75% RH, t = 2 week, precipitation observed) was 44.20^‡ % Area, the “Toxicity observed in rats” value (Sprague Dawley rats; 10 mg/kg/day) was “Very little toxicity” and the “Compound I-related effects” value (Sprague Dawley rats; 10 mg/kg/day low-dose level) was “limited to minimal changes noted in the teeth of one male”. For the same compound, the Microscopic findings (Sprague Dawley rats; 30 mg/kg/day, both sexes) was “Minimal to mild non-adverse microscopic abnormalities in various organs”, the Clinical chemistry findings (Sprague Dawley rats; 30 mg/kg/day, oral gavage, seven days) was “minimal increases in mean serum total bilirubin concentration and alkaline phosphatase activity” and the Morbidity/mortality (Sprague Dawley rats; 100 mg/kg/day, beginning on day 3, early termination of all animals on Day 5) was “Morbidity/mortality occurred both in male and female rats”.
